{"source": "patent US20150343016A1", "about": "“CHEMICAL ENTITIES AND THERAPEUTIC USES THEREOF” (The Regents of the University of Colorado, a body corporate, priority 2010, published 2015)", "key": {"[1]": {"assay": "LD50 in mice", "conditions": "mouse, in vivo"}, "[2]": {"tested_on": "FaDu cells", "assay": "MTT assay, Bouvardin with ionizing radiation, FaDu (same-day treatment)", "type": "cell-based, human", "experimental": "(§1) “Combination Index” computation. Combination Indices were calculated using CalcuSyn software (Biosoft), which uses the method of Chou and Talalay. This method first computes drug-induced effect using the Hill Equation: where E is the measured effect; C is the drug concentration; Emax is the full range of drug effect, usually at or near 100%; IC50 is the drug concentration producing the median effect of 50%; and n is the curve shape parameter describing the steepness of the concentration-effect relationship. The Chou and Talalay method then linearizes the Hill Equation by logarithmic transformation as: where fu is the fraction of cells left unaffected after drug exposure, fa is the fraction of cells affected by the exposure, C is the drug concentration used, Cm is the concentration to achieve the median effect, and n is the curve shape parameter. Cm and n are equivalent to IC50 and n, respectively, in the Hill Equation. The values of n (obtained from the slope), nlog(Cm) (obtained from the absolute value of the intercept), and, therefore, Cm are obtained by plotting log(fu−1−1) versus log(C). These numbers are then used to compute the Combination Index (CI) according to the formula: CI=(D)1/(Dx)1+(D)2/(Dx)2 (26). (Dx)1 and (Dx)2 are the doses required to achieve a given effect level for each treatment, i.e. a specified value of Fraction Affected or Fa. (D)1 and (D)2 are the doses of each treatment in a given combination which gives the same Fa.\nFor FIG. 19 MTT assays were used to determine the effect of Bouvardin (concentrations in uM) in combination with ionizing radiation (in Gy). The data from same-day treatment of IR and Bouvardin are shown, for comparison with taxol-Bouvardin combination that were also applied on the same day. In general, CI values were lower for FaDu cells than for Det562 cells in two separate experiments (only one set is shown). On Det562 cells, CI values were about 1 for most combinations. CI value for Det562 cells at 0.001 uM/1Gy and at >0.06 uM are not included in the graph because the values are >10 and would have made smaller values harder to see. On FaDu cells, CI values were below 1 at concentrations of 0.03 or lower, were about 1 for 0.06 uM drug, and were over 1 at higher concentrations.\n(§2) The growth inhibitory effects of Bouvardin with ionizing radiation (IR) were evaluated using a modified tetrazolium salt (MTT) assay. In the MTT assay, 1,000 to 2,000 viable cells were plated in 100 uL of growth medium in 96-well plates (Corning, Ithaca, N.Y.). Following an overnight incubation, drug was added in varying concentrations and the plates were irradiated on the same day (co-treatment) or 24 hr later (pre-treatment) and incubated for 6 to 7 days. The tetrazolium salt was added at a concentration of 0.4 mg/mL to each well following the 6- to 7-day treatment. The plates were incubated with the salt for 4 hours at 37° C. At 4 hours, the medium was aspirated off, leaving the dark blue formazan product at the bottom of the wells. The reduced MTT product was solubilized by adding […] of 0.2 N HCl in 75% isopropanol, 23% MilliQ water to each well. Thorough mixing was done using a Titertek multichannel pipetman. The absorbency of each well was measured using an automated plate reader (Molecular Devices, Sunnyvale, Calif.). All experiments were done in triplicate."}, "[3]": {"tested_on": "UM-SCC19 Head and Neck Cancer cell line", "assay": "MTT assay, Bouvardin with ionizing radiation, UM-SCC19 (pre-treated)", "type": "cell-based, human", "conditions": "UM-SCC19 cells", "experimental": "as §1, §2\nMTT assays were used to determine the effect of Bouvardin (concentrations in uM) in combination with ionizing radiation (in Gy, X-axis). FIG. 14 depicts CI values for Bouvardin and radiation on 3 cell lines. Combination Index data from 3 different Head and Neck Cancer cell lines are shown. Black dashed lines represent a CI value of 1. CI values below 1 indicate synergy. 1586 and UM-SCC19 were pre-treated whereas HN31 was treated on the same day."}}}
{"smiles": "COc1ccc(C[C@H]2C(=O)N[C@H](C)C(=O)N(C)[C@@H]3C(=O)N(C)[C@@H](Cc4ccc(O)c(c4)Oc4ccc(cc4)[C@H]3O)C(=O)N[C@@H](C)C(=O)N[C@H](C)C(=O)N2C)cc1", "note": "(stereo in doubt) [Bouvardin, bouvardin]", "values": [{"measurement": "LD50", "setting": "[1]", "result": 12.4, "unit": "mg/kg"}, {"measurement": "Bouvardin concentrations at which synergy was seen when combined with radiation", "setting": "[2]; Det562 and FaDu (FIG. 19)", "result": "lower than 0.06 μM"}, {"measurement": "interaction of Bouvardin with IR", "setting": "[2]; FaDu", "result": "a wide range of effects, synergistic to antagonistic"}, {"measurement": "CI values, Bouvardin with IR", "setting": "[2]; FaDu, 0.06 uM drug", "result": "about 1"}, {"measurement": "CI values, Bouvardin with IR", "setting": "[2]; FaDu, concentrations higher than 0.06 uM", "result": "over 1"}, {"measurement": "CI values, Bouvardin with IR", "setting": "[2]; FaDu, concentrations of 0.03 or lower", "result": "below 1"}, {"measurement": "Combination Index", "setting": "[3]; Bouvardin 0.001 uM + 1 Gy IR", "result": 13.885}, {"measurement": "Fraction Affected", "setting": "[3]; Bouvardin 0.001 uM + 1 Gy IR", "result": 0.143}, {"measurement": "Combination Index", "setting": "[3]; Bouvardin 0.001 uM + 2 Gy IR", "result": 2.245}, {"measurement": "Fraction Affected", "setting": "[3]; Bouvardin 0.001 uM + 2 Gy IR", "result": 0.28}, {"measurement": "Combination Index", "setting": "[3]; Bouvardin 0.001 uM + 4 Gy IR", "result": 1.023}, {"measurement": "Fraction Affected", "setting": "[3]; Bouvardin 0.001 uM + 4 Gy IR", "result": 0.386}, {"measurement": "Combination Index", "setting": "[3]; Bouvardin 0.003 uM + 1 Gy IR", "result": 5.143}, {"measurement": "Fraction Affected", "setting": "[3]; Bouvardin 0.003 uM + 1 Gy IR", "result": 0.227}, {"measurement": "Combination Index", "setting": "[3]; Bouvardin 0.003 uM + 2 Gy IR", "result": 1.22}, {"measurement": "Fraction Affected", "setting": "[3]; Bouvardin 0.003 uM + 2 Gy IR", "result": 0.366}, {"measurement": "Combination Index", "setting": "[3]; Bouvardin 0.003 uM + 4 Gy IR", "result": 0.627}, {"measurement": "Fraction Affected", "setting": "[3]; Bouvardin 0.003 uM + 4 Gy IR", "result": 0.466}, {"measurement": "Combination Index", "setting": "[3]; Bouvardin 0.006 uM + 1 Gy IR", "result": 1.696}, {"measurement": "Fraction Affected", "setting": "[3]; Bouvardin 0.006 uM + 1 Gy IR", "result": 0.354}, {"measurement": "Combination Index", "setting": "[3]; Bouvardin 0.006 uM + 2 Gy IR", "result": 0.762}, {"measurement": "Fraction Affected", "setting": "[3]; Bouvardin 0.006 uM + 2 Gy IR", "result": 0.448}, {"measurement": "Combination Index", "setting": "[3]; Bouvardin 0.006 uM + 4 Gy IR", "result": 0.82}, {"measurement": "Fraction Affected", "setting": "[3]; Bouvardin 0.006 uM + 4 Gy IR", "result": 0.461}, {"measurement": "Combination Index", "setting": "[3]; Bouvardin 0.01 uM + 1 Gy IR", "result": 1.561}, {"measurement": "Fraction Affected", "setting": "[3]; Bouvardin 0.01 uM + 1 Gy IR", "result": 0.395}, {"measurement": "Combination Index", "setting": "[3]; Bouvardin 0.01 uM + 2 Gy IR", "result": 0.694}, {"measurement": "Fraction Affected", "setting": "[3]; Bouvardin 0.01 uM + 2 Gy IR", "result": 0.49}, {"measurement": "Combination Index", "setting": "[3]; Bouvardin 0.01 uM + 4 Gy IR", "result": 0.619}, {"measurement": "Fraction Affected", "setting": "[3]; Bouvardin 0.01 uM + 4 Gy IR", "result": 0.521}, {"measurement": "Combination Index", "setting": "[3]; Bouvardin 0.03 uM + 1 Gy IR", "result": 1.414}, {"measurement": "Fraction Affected", "setting": "[3]; Bouvardin 0.03 uM + 1 Gy IR", "result": 0.44}, {"measurement": "Combination Index", "setting": "[3]; Bouvardin 0.03 uM + 2 Gy IR", "result": 0.777}, {"measurement": "Fraction Affected", "setting": "[3]; Bouvardin 0.03 uM + 2 Gy IR", "result": 0.511}, {"measurement": "Combination Index", "setting": "[3]; Bouvardin 0.03 uM + 4 Gy IR", "result": 0.848}, {"measurement": "Fraction Affected", "setting": "[3]; Bouvardin 0.03 uM + 4 Gy IR", "result": 0.515}, {"measurement": "Combination Index", "setting": "[3]; Bouvardin 0.06 uM + 1 Gy IR", "result": 1.587}, {"measurement": "Fraction Affected", "setting": "[3]; Bouvardin 0.06 uM + 1 Gy IR", "result": 0.431}, {"measurement": "Combination Index", "setting": "[3]; Bouvardin 0.06 uM + 2 Gy IR", "result": 1.482}, {"measurement": "Fraction Affected", "setting": "[3]; Bouvardin 0.06 uM + 2 Gy IR", "result": 0.444}, {"measurement": "Combination Index", "setting": "[3]; Bouvardin 0.06 uM + 4 Gy IR", "result": 1.01}, {"measurement": "Fraction Affected", "setting": "[3]; Bouvardin 0.06 uM + 4 Gy IR", "result": 0.498}, {"measurement": "Combination Index", "setting": "[3]; Bouvardin 0.1 uM + 1 Gy IR", "result": 2.102}, {"measurement": "Fraction Affected", "setting": "[3]; Bouvardin 0.1 uM + 1 Gy IR", "result": 0.437}, {"measurement": "Combination Index", "setting": "[3]; Bouvardin 0.1 uM + 2 Gy IR", "result": 1.027}, {"measurement": "Fraction Affected", "setting": "[3]; Bouvardin 0.1 uM + 2 Gy IR", "result": 0.518}, {"measurement": "Combination Index", "setting": "[3]; Bouvardin 0.1 uM + 4 Gy IR", "result": 1.691}, {"measurement": "Fraction Affected", "setting": "[3]; Bouvardin 0.1 uM + 4 Gy IR", "result": 0.473}, {"measurement": "Combination Index", "setting": "[3]; Bouvardin 0.3 uM + 1 Gy IR", "result": 1.313}, {"measurement": "Fraction Affected", "setting": "[3]; Bouvardin 0.3 uM + 1 Gy IR", "result": 0.523}, {"measurement": "Combination Index", "setting": "[3]; Bouvardin 0.3 uM + 2 Gy IR", "result": 1.347}, {"measurement": "Fraction Affected", "setting": "[3]; Bouvardin 0.3 uM + 2 Gy IR", "result": 0.524}, {"measurement": "Combination Index", "setting": "[3]; Bouvardin 0.3 uM + 4 Gy IR", "result": 1.052}, {"measurement": "Fraction Affected", "setting": "[3]; Bouvardin 0.3 uM + 4 Gy IR", "result": 0.558}, {"measurement": "Combination Index", "setting": "[3]; Bouvardin 0.6 uM + 1 Gy IR", "result": 1.704}, {"measurement": "Fraction Affected", "setting": "[3]; Bouvardin 0.6 uM + 1 Gy IR", "result": 0.532}, {"measurement": "Combination Index", "setting": "[3]; Bouvardin 0.6 uM + 2 Gy IR", "result": 1.546}, {"measurement": "Fraction Affected", "setting": "[3]; Bouvardin 0.6 uM + 2 Gy IR", "result": 0.545}, {"measurement": "Combination Index", "setting": "[3]; Bouvardin 0.6 uM + 4 Gy IR", "result": 1.251}, {"measurement": "Fraction Affected", "setting": "[3]; Bouvardin 0.6 uM + 4 Gy IR", "result": 0.573}, {"measurement": "Combination Index", "setting": "[3]; Bouvardin 1 uM + 1 Gy IR", "result": 13.885}, {"measurement": "Fraction Affected", "setting": "[3]; Bouvardin 1 uM + 1 Gy IR", "result": 0.143}, {"measurement": "Combination Index", "setting": "[3]; Bouvardin 1 uM + 2 Gy IR", "result": 2.245}, {"measurement": "Fraction Affected", "setting": "[3]; Bouvardin 1 uM + 2 Gy IR", "result": 0.28}, {"measurement": "Combination Index", "setting": "[3]; Bouvardin 1 uM + 4 Gy IR", "result": 1.023}, {"measurement": "Fraction Affected", "setting": "[3]; Bouvardin 1 uM + 4 Gy IR", "result": 0.386}]}
